From PubChem BioAssay AID1963974 (Molecular Pharmacology Branch, DTP, NCI, 2024)

Tested on: 648629-189-R-J1-PDC spheroids with HUVEC/MSC, viability
Assay: Anticancer human tumor 648629-189-R-J1-PDC patient-derived bladder carcinoma cell line growth inhibition [PI3K]
Settings: for IC50: curve of first compound; for viability, T/C: stronger effect = lower value
How it was run: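 Multi-cell spheroids combine tumor cells with HUVEC and human MSCs, treated with targeted agents alone or with inavolisib, alpelisib, duvelisib or copanlisib. Concentrations fall in half-log steps from at or near clinical Cmax, or from 10 microM where Cmax is unknown; viability read-out.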
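Further: spheroids exposed to agents for seven days before reading.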
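Wherever viability, T/C is given: percent of vehicle control luminescence where 100% = DMSO treated spheroids.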

CNC(=O)c1ccc(N2C(=S)N(c3ccc(C#N)c(C(F)(F)F)c3)C(=O)C2(C)C)cc1F + CC(Nc1ncnc2nc[nH]c12)c1cc2cccc(Cl)c2c(=O)n1-c1ccccc1
IC50 (second compound 0.0316 µM): > 10 µM
IC50 (second compound 0.1 µM): > 10 µM
IC50 (second compound 0.316 µM): > 10 µM
IC50 (second compound 1 µM): > 10 µM
IC50 (second compound 3.16 µM): > 10 µM
IC50 (second compound 10 µM): > 10 µM
viability, T/C (second compound 0.0316 µM, first compound 0.0316 µM): 113%
viability, T/C (second compound 0.0316 µM, first compound 0.1 µM): 107%
viability, T/C (second compound 0.0316 µM, first compound 0.316 µM): 101%
viability, T/C (second compound 0.0316 µM, first compound 1 µM): 102%
viability, T/C (second compound 0.0316 µM, first compound 3.16 µM): 102%
viability, T/C (second compound 0.0316 µM, first compound 10 µM): 87.4%
viability, T/C (second compound 0.1 µM, first compound 0.0316 µM): 113%
viability, T/C (second compound 0.1 µM, first compound 0.1 µM): 98.9%
viability, T/C (second compound 0.1 µM, first compound 0.316 µM): 96.6%
viability, T/C (second compound 0.1 µM, first compound 1 µM): 97.8%
viability, T/C (second compound 0.1 µM, first compound 3.16 µM): 92.8%
viability, T/C (second compound 0.1 µM, first compound 10 µM): 80.2%
viability, T/C (second compound 0.316 µM, first compound 0.0316 µM): 105%
viability, T/C (second compound 0.316 µM, first compound 0.1 µM): 111%
viability, T/C (second compound 0.316 µM, first compound 0.316 µM): 93.5%
viability, T/C (second compound 0.316 µM, first compound 1 µM): 104%
viability, T/C (second compound 0.316 µM, first compound 3.16 µM): 118%
viability, T/C (second compound 0.316 µM, first compound 10 µM): 78.9%
viability, T/C (second compound 1 µM, first compound 0.0316 µM): 99%
viability, T/C (second compound 1 µM, first compound 0.1 µM): 101%
viability, T/C (second compound 1 µM, first compound 0.316 µM): 100%
viability, T/C (second compound 1 µM, first compound 1 µM): 97.1%
viability, T/C (second compound 1 µM, first compound 3.16 µM): 105%
viability, T/C (second compound 1 µM, first compound 10 µM): 88.5%
viability, T/C (second compound 3.16 µM, first compound 0.0316 µM): 92%
viability, T/C (second compound 3.16 µM, first compound 0.1 µM): 109%
viability, T/C (second compound 3.16 µM, first compound 0.316 µM): 93.9%
viability, T/C (second compound 3.16 µM, first compound 1 µM): 95.3%
viability, T/C (second compound 3.16 µM, first compound 3.16 µM): 95.5%
viability, T/C (second compound 3.16 µM, first compound 10 µM): 90.8%
viability, T/C (second compound 10 µM, first compound 0.0316 µM): 82.7%
viability, T/C (second compound 10 µM, first compound 0.1 µM): 87.1%
viability, T/C (second compound 10 µM, first compound 0.316 µM): 100%
viability, T/C (second compound 10 µM, first compound 1 µM): 91.1%
viability, T/C (second compound 10 µM, first compound 3.16 µM): 87.7%
viability, T/C (second compound 10 µM, first compound 10 µM): 69%

Cn1cnc2c(F)c(Nc3ccc(Br)cc3Cl)c(C(=O)NOCCO)cc21 + CC(Nc1ncnc2nc[nH]c12)c1cc2cccc(Cl)c2c(=O)n1-c1ccccc1
IC50 (second compound 0.0316 µM): > 3 µM
IC50 (second compound 0.1 µM): > 3 µM
IC50 (second compound 0.316 µM): > 3 µM
IC50 (second compound 1 µM): > 3 µM
IC50 (second compound 3.16 µM): > 3 µM
IC50 (second compound 10 µM): > 3 µM
viability, T/C (second compound 0.0316 µM, first compound 0.00949 µM): 101%
viability, T/C (second compound 0.0316 µM, first compound 0.03 µM): 86.2%
viability, T/C (second compound 0.0316 µM, first compound 0.0949 µM): 84%
viability, T/C (second compound 0.0316 µM, first compound 0.3 µM): 101%
viability, T/C (second compound 0.0316 µM, first compound 0.949 µM): 93.6%
viability, T/C (second compound 0.0316 µM, first compound 3 µM): 81.6%
viability, T/C (second compound 0.1 µM, first compound 0.00949 µM): 97.1%
viability, T/C (second compound 0.1 µM, first compound 0.03 µM): 93.6%
viability, T/C (second compound 0.1 µM, first compound 0.0949 µM): 102%
viability, T/C (second compound 0.1 µM, first compound 0.3 µM): 95.5%
viability, T/C (second compound 0.1 µM, first compound 0.949 µM): 107%
viability, T/C (second compound 0.1 µM, first compound 3 µM): 90.1%
viability, T/C (second compound 0.316 µM, first compound 0.00949 µM): 95.8%
viability, T/C (second compound 0.316 µM, first compound 0.03 µM): 101%
viability, T/C (second compound 0.316 µM, first compound 0.0949 µM): 94%
viability, T/C (second compound 0.316 µM, first compound 0.3 µM): 114%
viability, T/C (second compound 0.316 µM, first compound 0.949 µM): 105%
viability, T/C (second compound 0.316 µM, first compound 3 µM): 79.2%
viability, T/C (second compound 1 µM, first compound 0.00949 µM): 105%
viability, T/C (second compound 1 µM, first compound 0.03 µM): 100%
viability, T/C (second compound 1 µM, first compound 0.0949 µM): 94.9%
viability, T/C (second compound 1 µM, first compound 0.3 µM): 98.9%
viability, T/C (second compound 1 µM, first compound 0.949 µM): 88.3%
viability, T/C (second compound 1 µM, first compound 3 µM): 88.2%
viability, T/C (second compound 3.16 µM, first compound 0.00949 µM): 103%
viability, T/C (second compound 3.16 µM, first compound 0.03 µM): 101%
viability, T/C (second compound 3.16 µM, first compound 0.0949 µM): 94.2%
viability, T/C (second compound 3.16 µM, first compound 0.3 µM): 108%
viability, T/C (second compound 3.16 µM, first compound 0.949 µM): 89.2%
viability, T/C (second compound 3.16 µM, first compound 3 µM): 84.4%
viability, T/C (second compound 10 µM, first compound 0.00949 µM): 93.2%
viability, T/C (second compound 10 µM, first compound 0.03 µM): 80.3%
viability, T/C (second compound 10 µM, first compound 0.0949 µM): 92.1%
viability, T/C (second compound 10 µM, first compound 0.3 µM): 92.8%
viability, T/C (second compound 10 µM, first compound 0.949 µM): 79%
viability, T/C (second compound 10 µM, first compound 3 µM): 68.6%
